Counter-ions that a name gives are not always drawn.
tested on: anesthetized rats; experiment: Effect on pelvic nerve stimulation-induced elevation of intravesical pressure in anesthetized rats; assay type: in vivo; details: Rattus norvegicus; 3 mg/kg intravenous; maximum effect within one hour; AUC, pre-treatment = 100%; SD female rats; read-out: Increase rate of intravesical pressure (% of pre)
Method: Test Example 3: Effect on Pelvic Nerve Stimulation-Induced Elevation of Intravesical Pressure in Anesthetized Rats
The effect of the Example compounds of the present invention in the pelvic nerve electrical stimulation-induced elevation of intravesical pressure using rats as an action of nerve stimulation-dependent bladder contraction in vivo was measured by the following method. That is, SD female rats (Japan SLC, Inc.) were used and its lower abdomen was dissected at the midline under pentobarbital anesthesia (50 mg/kg ip). After ligating and cutting the ureter on both sides, a cannula (PE-50) for measuring the intravesical pressure was inserted into the bladder from the external urethral opening and fixed by a clip. After injecting about 200 μL of saline through the cannula that had been inserted into the bladder, the other side was connected to a pressure transducer to measure the intravesical pressure. Under a stereoscopic microscope observation, the pelvic nerve in the vicinity of the bladder was peeled and an electrode for nerve stimulation (unique Medical) was placed. The abdominal cavity was filled with mineral oil (MP BIOMEDICALS). After placing in a post-operative stabilization period, the pelvic nerve was subjected to electrical stimulation (stimulation voltage: 10 V, stimulation frequency: 8 Hz, pulse width: 0.3 msec, and stimulation time: 10 seconds) to elicit the elevation of intravesical pressure, using an electrical stimulator (Nihon Kohden). By repeating the electrical stimulation at an interval of 2 minutes while adjusting the voltage, the voltage was adjusted to elicit about 50% to 70% elevation of intravesical pressure elicited at 10 V. Thereafter, by repeating the electrical stimulation at an interval of 10 minutes, the increase in the intravesical pressure by electrical stimulation was stabilized three times or more, and the test substance (an administration amount of 3 mg/kg) was then administered from the catheter detained in the vein at a volume of 1 mL/kg, thus measuring an effect of the elevation of the intravesical pressure of the test substance for 1 hour. The test substance was dissolved in water supplemented with 10% DMSO and 10% Cremophor.
The response was applied to a personal computer through a PowerLab (registered trademark) and analyzed by LabChart (registered trademark). The AUC of each elevation of the intravesical pressure was calculated, the intravesical pressure elevation rate (% of pre) after the treatment with the test substance was calculated by taking an average value of the values measured three times before the treatment with the test substance as 100%, and the maximum effect during a period within one hour after administration of the compound was considered as the effect of the test substance.

First: C[C@@H]1CCCN1Cc1sc(Nc2ncnc(N3CCN(CC(=O)O)CC3)c2F)nc1-c1cc(Cl)cc(C(F)(F)F)c1 [Example 77]
Second: C[C@@H]1CCCCN1Cc1sc(Nc2ncnc(N3CCN(CCC(=O)O)CC3)c2F)nc1-c1cc(Cl)cc(C(F)(F)F)c1 [Example 43]
The response vs control in vivo at 3 mg/kg of the first is lower: 140% for the first, 177% for the second.

First: C[C@@H]1CCCN1Cc1sc(Nc2ncnc(N3CCC(OCC(=O)O)CC3)c2F)nc1-c1cc(Cl)cc(C(F)(F)F)c1 [Example 67]
Second: C[C@@H]1CC[C@@H](C)N1Cc1sc(Nc2ncnc(N3CCC(OCC(=O)O)CC3)c2F)nc1-c1cc(Cl)cc(C(F)(F)F)c1 [Example 68]
The response vs control in vivo at 3 mg/kg of the first is lower: 169% for the first, 172% for the second.

Going from C[C@@H]1CCCN1Cc1sc(Nc2ncnc(N3CC[C@H](N(C)CCC(=O)O)C3)c2F)nc1-c1ccc(Cl)c(C(F)(F)F)c1 [Example 53] to C[C@@H]1CCCN1Cc1sc(Nc2ncnc(N3CC[C@H](N(C)CCC(=O)O)C3)c2F)nc1-c1cc(F)cc(C(F)(F)F)c1 [Example 34], the response vs control in vivo at 3 mg/kg rises from 145% to 159%.

Compared with C[C@@H]1CCCN1Cc1sc(Nc2ncnc(N3CCN(CCC(=O)O)CC3)c2F)nc1-c1cc(Cl)cc(OC(F)(F)F)c1 [Example 51], CC[C@@H]1CCCN1Cc1sc(Nc2ncnc(N3CCN(CCC(=O)O)CC3)c2F)nc1-c1cc(Cl)cc(C(F)(F)F)c1 [Example 63] is higher in response vs control in vivo at 3 mg/kg: 129% for the first, 198% for the second.

First: C[C@@H]1CCCN1Cc1sc(Nc2ncnc(N3CCN(CCC(=O)O)[C@@H](C)C3)c2F)nc1-c1ccc(Cl)c(C(F)(F)F)c1 [Example 35]
Second: C[C@@H]1CCCN1Cc1sc(Nc2ncnc(N3CCN(CCC(=O)O)[C@H](CF)C3)c2F)nc1-c1ccc(Cl)c(C(F)(F)F)c1 [Example 59]
The response vs control in vivo at 3 mg/kg of the first is lower: 154% for the first, 225% for the second.

First: Cc1nc(Nc2nc(-c3cc(F)cc(C(F)(F)F)c3)c(CN3[C@H](C)CC[C@H]3C)s2)cc(N2CCN(CCC(=O)O)CC2)n1 [Example 99]
Second: Cc1nc(Nc2nc(-c3cc(F)cc(C(F)(F)F)c3)c(CN3CCC[C@H]3C)s2)cc(N2CCN(CCC(=O)O)[C@H](C)C2)n1 [Example 21]
The response vs control in vivo at 3 mg/kg of the first is higher: 121% for the first, 116% for the second.

First: C[C@@H]1CC[C@@H](C)N1Cc1sc(Nc2ncnc(N3CCN(CCC(=O)O)CC3)c2F)nc1-c1ccc(Cl)c(C(F)(F)F)c1 [Example 36]
Second: C[C@@H]1CC[C@@H](C)N1Cc1sc(Nc2ncnc(N3CCN(CCC(=O)O)CC3)c2F)nc1-c1cc(Cl)cc(C(F)(F)F)c1 [Example 40]
The response vs control in vivo at 3 mg/kg of the first is lower: 191% for the first, 212% for the second.

First: COC1CCN(c2sc(Nc3cc(N4CCN(CCC(=O)O)CC4)nc(C)n3)nc2-c2cc(F)cc(C(F)(F)F)c2)CC1 [Example 27]
Second: Cc1nc(Nc2nc(-c3cc(F)cc(C(F)(F)F)c3)c(CN3CCC[C@H]3C)s2)cc(N2CCN(CC(=O)O)CC2)n1 [Example 16]
The response vs control in vivo at 3 mg/kg of the first is higher: 123% for the first, 111% for the second.

Going from C[C@@H]1CCCN1Cc1sc(Nc2cc(N3CCN(CCC(=O)O)CC3)ncn2)nc1-c1cc(Cl)cc(C(F)(F)F)c1 [Example 92] to COc1c(F)cc(-c2nc(Nc3cc(N4CCN(CCC(=O)O)CC4)ncn3)sc2CN2CCC[C@H]2C)cc1C(F)(F)F [Example 94], the response vs control in vivo at 3 mg/kg rises from 105% to 114%.

Going from C[C@@H]1CCCN1Cc1sc(Nc2nccc(N3CCN(CCC(=O)O)CC3)c2F)nc1-c1cc(F)cc(C(F)(F)F)c1 [Example 5, 3-(4-{3-fluoro-2-[(4-[3-fluoro-5-(trifluoromethyl)phenyl]-5-{[(2R)-2-methylpyrrolidin-1-yl]methyl}-1,3-thiazol-2-yl)amino]pyridin-4-yl}piperazin-1-yl)propanoic acid trihydrochloride] to C[C@@H]1CC[C@@H](C)N1Cc1sc(Nc2nccc(N3CCN(CCC(=O)O)CC3)c2F)nc1-c1cc(F)cc(C(F)(F)F)c1 [Example 100], the response vs control in vivo at 3 mg/kg falls from 146% to 145%.

Compared with C[C@@H]1CN(c2cc(Nc3nc(-c4cc(F)cc(C(F)(F)F)c4)c(CN4CCC[C@H]4C)s3)ncn2)CCN1CCC(=O)O [Example 20], Cc1nc(Nc2nc(-c3cc(F)cc(C(F)(F)F)c3)c(CN3CCC[C@H]3C)s2)cc(N2CCN(CCC(=O)O)[C@@H](C)C2)n1 [Example 15] is higher in response vs control in vivo at 3 mg/kg: 118% for the first, 130% for the second.

Going from C[C@@H]1CCCN1Cc1sc(Nc2ncnc(N3CCN(CCC(=O)O)[C@@H](C)C3)c2F)nc1-c1cc(F)cc(C(F)(F)F)c1 [Example 31] to C[C@@H]1CCCN1Cc1sc(Nc2ncnc(N3CCN(CCC(=O)O)[C@H](CF)C3)c2F)nc1-c1cc(F)cc(C(F)(F)F)c1 [Example 58], the response vs control in vivo at 3 mg/kg rises from 138% to 175%.

Compared with CCN(CC)Cc1sc(Nc2nc(C)nc(N3CCN(CCC(=O)O)CC3)c2F)nc1-c1cc(F)cc(C(F)(F)F)c1 [Example 97], Cc1nc(Nc2nc(-c3cc(F)cc(C(F)(F)F)c3)c(CN(C)C(C)C)s2)c(F)c(N2CCN(CCC(=O)O)CC2)n1 [Example 98] is lower in response vs control in vivo at 3 mg/kg: 143% for the first, 139% for the second.

Compared with C[C@@H]1CCCN1Cc1sc(Nc2ncnc(N3CCN(CCC(=O)O)[C@@H](CO)C3)c2F)nc1-c1cc(F)cc(C(F)(F)F)c1 [Example 86], C[C@@H]1CCCN1Cc1sc(Nc2ncnc(N3CCN(CCC(=O)O)C(CF)C3)c2F)nc1-c1cc(F)cc(C(F)(F)F)c1 (stereo partly shown) [Example 45] is higher in response vs control in vivo at 3 mg/kg: 164% for the first, 182% for the second.

Going from COC1(C(=O)O)CCN(c2ncnc(Nc3nc(-c4cc(F)cc(C(F)(F)F)c4)c(CN4CCC[C@H]4C)s3)c2F)CC1 [Example 39] to COC1(C(=O)O)CCN(c2ncnc(Nc3nc(-c4cc(F)cc(C(F)(F)F)c4)c(CN4[C@H](C)CC[C@H]4C)s3)c2F)CC1 [Example 54], the response vs control in vivo at 3 mg/kg rises from 123% to 150%.

Going from CC[C@@H]1CCCN1Cc1sc(Nc2ncnc(N3CCN(CCC(=O)O)[C@H](COC)C3)c2F)nc1-c1cc(Cl)cc(C(F)(F)F)c1 [Example 71] to CC[C@@H]1CCCN1Cc1sc(Nc2ncnc(N3CCN(CCC(=O)O)[C@H](COC)C3)c2F)nc1-c1cc(F)cc(C(F)(F)F)c1 [Example 70], the response vs control in vivo at 3 mg/kg falls from 197% to 151%.

Going from C[C@@H]1CCCN1Cc1sc(Nc2nccc(N3CCN(CCC(=O)O)CC3)c2F)nc1-c1ccc(Cl)c(C(F)(F)F)c1 [Example 2, sodium 3-(4-{2-[(4-[4-chloro-3-(trifluoromethyl)phenyl]-5-{[(2R)-2-methylpyrrolidin-1-yl]methyl}-1,3-thiazol-2-yl)amino]-3-fluoropyridin-4-yl}piperazin-1-yl)propanoate] to COC[C@H]1CN(c2ncnc(Nc3nc(-c4ccc(Cl)c(C(F)(F)F)c4)c(CN4CCC[C@H]4C)s3)c2F)CCN1CCC(=O)O [Example 55], the response vs control in vivo at 3 mg/kg rises from 143% to 189%.

Compared with Cc1nc(Nc2nc(-c3cc(F)cc(C(F)(F)F)c3)c(CN3CCC[C@H]3C)s2)cc(N2CCC(OCC(=O)O)CC2)n1 [Example 30], CC[C@@H]1CCCN1Cc1sc(Nc2nc(C)nc(N3CCN(CCC(=O)O)CC3)c2F)nc1-c1cc(F)cc(C(F)(F)F)c1 [Example 38] is higher in response vs control in vivo at 3 mg/kg: 124% for the first, 142% for the second.

First: CN(Cc1sc(Nc2ncnc(N3CCN(CCC(=O)O)CC3)c2F)nc1-c1cc(F)cc(C(F)(F)F)c1)CC1CC1 [Example 29]
Second: CC[C@@H]1CCCN1Cc1sc(Nc2ncnc(N3CC[C@H](N(C)CCC(=O)O)C3)c2F)nc1-c1cc(Cl)cc(C(F)(F)F)c1 [Example 69]
The response vs control in vivo at 3 mg/kg of the first is lower: 145% for the first, 150% for the second.

Going from C[C@@H]1CC[C@@H](C)N1Cc1sc(Nc2ncnc(N3CC[C@H](N(C)CCC(=O)O)C3)c2F)nc1-c1cc(Cl)cc(C(F)(F)F)c1 [Example 65] to CO[C@H]1CCCN(c2sc(Nc3ncnc(N4CCN(CCC(=O)O)CC4)c3F)nc2-c2ccc(Cl)c(C(F)(F)F)c2)C1 [Example 32], the response vs control in vivo at 3 mg/kg rises from 174% to 232%.
